# According to patent publication US9676714B2, “Sulfonylindole derivatives and method for preparing the same” (Daewoong Pharmaceutical Co., Ltd., priority 2013, dated 2017):
# Structures can show the parent of a compound that is named as a salt.
# Target: T1, proton pump (H+/K+-ATPase) (Sus scrofa, UniProt P19156)
# T1 construct: Gastric vesicles were prepared from hog stomach via centrifugal separation; from tissue; host or cells: hog stomach (gastric vesicles, method of Rabon et al. 1988)
# Assay: Measurement of inhibitory effects on proton pump (H+/K+-ATPase) activities
# Format: biochemical
# Conditions: hog gastric vesicles, K+-specific H+/K+-ATPase activity, Tris-HCl buffer pH 7.4, 37° C. for 40 minutes, malachite green Pi readout
# How it was run: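 Hog gastric vesicles in 60 mmol/l Tris-HCl pH 7.4 with 0.5% DMSO were treated with compounds at room temperature; reaction was started with 10 μl of 10 mmol/l ATP stock. Released Pi was read at 570 nm, K+-specific activity taken as the ±K+ difference. IC50 from 4-parameter logistic fit.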
# T1 sequence (P19156 whole entry): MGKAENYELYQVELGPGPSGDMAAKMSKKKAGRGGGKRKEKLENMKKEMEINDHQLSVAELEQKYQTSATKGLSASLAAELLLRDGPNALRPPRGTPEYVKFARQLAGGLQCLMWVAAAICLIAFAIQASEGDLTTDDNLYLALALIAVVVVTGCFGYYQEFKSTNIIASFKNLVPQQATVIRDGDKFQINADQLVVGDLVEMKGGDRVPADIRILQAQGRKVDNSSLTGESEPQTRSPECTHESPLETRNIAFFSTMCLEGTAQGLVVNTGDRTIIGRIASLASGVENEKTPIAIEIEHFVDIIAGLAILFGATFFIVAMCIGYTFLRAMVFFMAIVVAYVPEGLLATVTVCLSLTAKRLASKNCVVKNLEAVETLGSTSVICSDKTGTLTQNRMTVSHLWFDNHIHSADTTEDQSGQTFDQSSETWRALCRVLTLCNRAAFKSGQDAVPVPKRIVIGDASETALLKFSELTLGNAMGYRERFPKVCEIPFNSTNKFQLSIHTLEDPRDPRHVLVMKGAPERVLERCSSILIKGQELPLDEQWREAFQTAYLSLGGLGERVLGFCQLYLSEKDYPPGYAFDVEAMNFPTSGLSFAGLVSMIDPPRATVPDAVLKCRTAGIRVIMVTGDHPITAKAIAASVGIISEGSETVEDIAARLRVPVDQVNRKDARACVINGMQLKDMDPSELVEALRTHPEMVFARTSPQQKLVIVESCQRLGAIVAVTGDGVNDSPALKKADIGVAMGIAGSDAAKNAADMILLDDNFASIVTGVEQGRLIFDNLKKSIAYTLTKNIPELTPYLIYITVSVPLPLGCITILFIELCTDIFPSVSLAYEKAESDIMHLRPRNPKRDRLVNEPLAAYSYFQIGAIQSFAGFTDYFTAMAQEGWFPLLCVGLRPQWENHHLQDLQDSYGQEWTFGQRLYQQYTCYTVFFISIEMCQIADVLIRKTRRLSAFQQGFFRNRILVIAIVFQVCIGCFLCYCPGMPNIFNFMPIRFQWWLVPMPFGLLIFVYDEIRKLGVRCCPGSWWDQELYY
# T1 sequence (P18434 whole entry partner): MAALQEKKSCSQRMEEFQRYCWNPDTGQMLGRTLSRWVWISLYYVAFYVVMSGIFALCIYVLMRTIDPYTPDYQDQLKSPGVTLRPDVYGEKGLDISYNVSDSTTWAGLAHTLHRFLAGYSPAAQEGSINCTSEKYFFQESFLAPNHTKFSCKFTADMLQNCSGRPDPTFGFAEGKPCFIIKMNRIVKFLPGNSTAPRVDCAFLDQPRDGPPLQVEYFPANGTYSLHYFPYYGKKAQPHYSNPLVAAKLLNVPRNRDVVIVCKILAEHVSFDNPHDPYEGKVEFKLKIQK
row,SMILES,IC50
1,"CNCc1cn(S(=O)(=O)c2cccc(OC(F)F)c2)c2cc(Nc3ccc(OC)cc3F)ccc12 [Example 178, 1-((3-(difluoromethoxy)phenyl)sulfonyl)-N-(2-fluoro-4-methoxyphenyl)-3-((methylamino)methyl)-1H-indol-6-amine hydrochloride]",610 nM
2,"CNCc1cn(S(=O)(=O)c2cccc(OC(F)F)c2)c2cc(Nc3ccc(OC(F)(F)F)cc3C)ccc12 [Example 179, 1-((3-(difluoromethoxy)phenyl)sulfonyl)-N-(2-methyl-4-(trifluoromethoxy)phenyl)-3-((methylamino)methyl)-1H-indol-6-amine hydrochloride]",330 nM
3,"CNCc1cn(S(=O)(=O)c2cccc(OC(F)F)c2)c2cc(Nc3ccc(C)c(F)c3F)ccc12 [Example 180, N-(2,3-difluoro-4-methylphenyl)-1-((3-(difluoromethoxy)phenyl)sulfonyl)-3-((methylamino)methyl)-1H-indol-6-amine hydrochloride]",270 nM
4,"CNCc1cn(S(=O)(=O)c2cccc(OC(F)F)c2)c2cc(Nc3ccc(C)nc3F)ccc12 [Example 181, 1-((3-(difluoromethoxy)phenyl)sulfonyl)-N-(2-fluoro-6-methylpyridin-3-yl)-3-((methylamino)methyl)-1H-indol-6-amine hydrochloride]",1280 nM
5,"CNCc1cn(S(=O)(=O)c2cccc(C(F)(F)F)c2)c2cc(Nc3ccc(C)cc3F)ccc12 [Example 183, N-(2-fluoro-4-methylphenyl)-3-((methylamino)methyl)-1-((3-(trifluoromethyl)phenyl)sulfonyl)-1H-indol-6-amine hydrochloride]",590 nM
6,"CNCc1cn(S(=O)(=O)c2cccc(C(F)(F)F)c2)c2cc(Nc3ccc(C)cc3Cl)ccc12 [Example 184, N-(2-chloro-4-methylphenyl)-3-((methylamino)methyl)-1-((3-(trifluoromethyl)phenyl)sulfonyl)-1H-indol-6-amine hydrochloride]",360 nM
7,"CNCc1cn(S(=O)(=O)c2cccc(C(F)(F)F)c2)c2cc(Nc3ccc(Cl)cc3F)ccc12 [Example 185, N-(4-chloro-2-fluorophenyl)-3-((methylamino)methyl)-1-((3-(trifluoromethyl)phenyl)sulfonyl)-1H-indol-6-amine hydrochloride]",1000 nM
8,"CNCc1cn(S(=O)(=O)c2cccc(C(F)(F)F)c2)c2cc(Nc3ccc(Cl)cc3C(F)(F)F)ccc12 [Example 186, N-(4-chloro-2-(trifluoromethyl)phenyl)-3-((methylamino)methyl)-1-((3-(trifluoromethyl)phenyl)sulfonyl)-1H-indol-6-amine hydrochloride]",410 nM
9,"CNCc1cn(S(=O)(=O)c2cccc(C(F)(F)F)c2)c2cc(Nc3ccc(C(F)(F)F)cc3Cl)ccc12 [Example 187, N-(2-chloro-4-(trifluoromethyl)phenyl)-3-((methylamino)methyl)-1-((3-(trifluoromethyl)phenyl)sulfonyl)-1H-indol-6-amine hydrochloride]",980 nM
10,"CNCc1cn(S(=O)(=O)c2cccc(C(F)(F)F)c2)c2cc(Nc3ccc(OC)cc3F)ccc12 [Example 188, N-(2-fluoro-4-methoxyphenyl)-3-((methylamino)methyl)-1-((3-(trifluoromethyl)phenyl)sulfonyl)-1H-indol-6-amine hydrochloride]",400 nM
11,"CNCc1cn(S(=O)(=O)c2cccc(C(F)(F)F)c2)c2cc(Nc3ccc(OC(F)(F)F)cc3C)ccc12 [Example 189, N-(2-methyl-4-(trifluoromethoxy)phenyl)-3-((methylamino)methyl)-1-((3-(trifluoromethyl)phenyl)sulfonyl)-1H-indol-6-amine hydrochloride]",650 nM
12,"CNCc1cn(S(=O)(=O)c2cccc(C(F)(F)F)c2)c2cc(Nc3ccc(OC(F)(F)F)cc3OC)ccc12 [Example 190, N-(2-methoxy-4-(trifluoromethoxy)phenyl)-3-((methylamino)methyl)-1-((3-(trifluoromethyl)phenyl)sulfonyl)-1H-indol-6-amine hydrochloride]",440 nM
13,"CNCc1cn(S(=O)(=O)c2cccc(C(F)(F)F)c2)c2cc(Nc3ccc(C)c(F)c3F)ccc12 [Example 191, N-(2,3-difluoro-4-methylphenyl)-3-((methylamino)methyl)-1-((3-(trifluoromethyl)phenyl)sulfonyl)-1H-indol-6-amine hydrochloride]",70 nM
14,"CNCc1cn(S(=O)(=O)c2cccc(C(F)(F)F)c2)c2cc(Nc3ccc(C)nc3Cl)ccc12 [Example 192, N-(2-chloro-6-methylpyridin-3-yl)-3-((methylamino)methyl)-1-((3-(trifluoromethyl)phenyl)sulfonyl)-1H-indol-6-amine hydrochloride]",60 nM
15,"CNCc1cn(S(=O)(=O)c2cccc(C(F)(F)F)c2)c2cc(Nc3ccc(Cl)nc3Cl)ccc12 [Example 193, N-(2,6-dichloropyridin-3-yl)-3-((methylamino)methyl)-1-((3-(trifluoromethyl)phenyl)sulfonyl)-1H-indol-6-amine hydrochloride]",580 nM
16,"CNCc1cn(S(=O)(=O)c2cccc(C(F)(F)F)c2)c2cc(Nc3ccc(C(F)(F)F)nc3Cl)ccc12 [Example 195, N-(2-chloro-6-(trifluoromethyl)pyridin-3-yl)-3-((methylamino)methyl)-1-((3-(trifluoromethyl)phenyl)sulfonyl)-1H-indol-6-amine hydrochloride]",1270 nM
17,"CNCc1cn(S(=O)(=O)c2cccc(OC(F)(F)F)c2)c2cc(Nc3ccc(C)cc3Cl)ccc12 [Example 196, N-(2-chloro-4-methylphenyl)-3-((methylamino)methyl)-1-((3-(trifluoromethoxy)phenyl)sulfonyl)-1H-indol-6-amine hydrochloride]",390 nM
18,"CNCc1cn(S(=O)(=O)c2cccc(OC(F)(F)F)c2)c2cc(Nc3ccc(Cl)cc3F)ccc12 [Example 197, N-(4-chloro-2-fluorophenyl)-3-((methylamino)methyl)-1-((3-(trifluoromethoxy)phenyl)sulfonyl)-1H-indol-6-amine hydrochloride]",850 nM
19,"CNCc1cn(S(=O)(=O)c2cccc(OC(F)(F)F)c2)c2cc(Nc3ccc(C(F)(F)F)cc3Cl)ccc12 [Example 198, N-(2-chloro-4-(trifluoromethyl)phenyl)-3-((methylamino)methyl)-1-((3-(trifluoromethoxy)phenyl)sulfonyl)-1H-indol-6-amine hydrochloride]",160 nM
20,"CNCc1cn(S(=O)(=O)c2cccc(OC(F)(F)F)c2)c2cc(Nc3ccc(OC)cc3F)ccc12 [Example 199, N-(2-fluoro-4-methoxyphenyl)-3-(methylamino)methyl)-1-((3-(trifluoromethoxy)phenyl)sulfonyl)-1H-indol-6-amine hydrochloride]",340 nM
21,"CNCc1cn(S(=O)(=O)c2cccc(OC(F)(F)F)c2)c2cc(Nc3ccc(OC(F)(F)F)cc3C)ccc12 [Example 200, N-(2-methyl-4-(trifluoromethoxy)phenyl)-3-((methylamino)methyl)-1-((3-(trifluoromethoxy)phenyl)sulfonyl)-1H-indol-6-amine hydrochloride]",900 nM
22,"CNCc1cn(S(=O)(=O)c2cccc(OC(F)(F)F)c2)c2cc(Nc3ccc(OC(F)(F)F)cc3Cl)ccc12 [Example 201, N-(2-chloro-4-(trifluoromethoxy)phenyl)-3-((methylamino)methyl)-1-((3-(trifluoromethoxy)phenyl)sulfonyl)-1H-indol-6-amine hydrochloride]",660 nM
